{"source": "patent US4415730A", "about": "“19-Deformyl-deoxy-desmycosin” (priority 1981, dated 1983)", "assay_type_in_all_cases": "cell-based", "key": {"[1]": {"test_system": "Staphylococcus aureus 0119", "experiment": "MIC, Staphylococcus aureus 0119", "text": "(§1) *Macrolide antibioticsresistant A group strain (clinical isolates of\n(§2) erythromycin, oleandomycin and 16member-ring-macrolide-resistant strain)"}, "[2]": {"test_system": "Streptococcus pyogenes 1022", "experiment": "MIC, Streptococcus pyogenes 1022"}, "[3]": {"test_system": "Staphylococcus aureus ATCC 6538P", "experiment": "MIC, Staphylococcus aureus ATCC 6538P", "settings": "ATCC6538P"}, "[4]": {"test_system": "Staphylococcus aureus MS353", "experiment": "MIC, Staphylococcus aureus MS353"}, "[5]": {"test_system": "Staphylococcus aureus 0116", "experiment": "MIC, Staphylococcus aureus 0116", "text": "as §1, §2"}, "[6]": {"test_system": "Streptococcus pyogenes N.Y.5", "experiment": "MIC, Streptococcus pyogenes N.Y.5"}, "[7]": {"test_system": "Staphylococcus aureus MS353AO", "experiment": "MIC, Staphylococcus aureus MS353AO", "text": "as §1, §2"}, "[8]": {"test_system": "Staphylococcus aureus 0127", "experiment": "MIC, Staphylococcus aureus 0127", "text": "as §1, §2"}, "[9]": {"settings": "Staphylococcus aureus 0119, macrolide-resistant A group strain, clinical isolate, read-out: MIC"}, "[10]": {"settings": "Staphylococcus aureus 0116, macrolide-resistant A group strain, clinical isolate, read-out: MIC"}, "[11]": {"settings": "Staphylococcus aureus 0127, macrolide-resistant A group strain, clinical isolate, read-out: MIC"}}, "note": "Where two headings read alike, the source gives them in different places.", "data": [{"smiles": "CCC1OC(=O)CC(O)C(C)C(OC2OC(C)CC(N(C)C)C2O)C(C)CC(C)C(=O)C=CC(C)=CC1COC1OC(C)C(O)C(OC)C1OC", "note": "(stereo not shown) [Compound [1] R1 = H, 19-deformyl-4'-deoxy-desmycosin]", "values": [{"measurement": "MIC", "setting": "[1]; [9]", "result": "> 100", "unit": "µg/mL"}, {"measurement": "MIC", "setting": "[2]", "result": "> 100", "unit": "µg/mL"}, {"measurement": "MIC", "setting": "[3]", "result": "≤ 0.05", "unit": "µg/mL"}, {"measurement": "MIC", "setting": "[4]", "result": "≤ 0.05", "unit": "µg/mL"}, {"measurement": "MIC", "setting": "[5]; [10]", "result": 0.8, "unit": "µg/mL"}, {"measurement": "MIC", "setting": "[6]", "result": "≤ 0.05", "unit": "µg/mL"}, {"measurement": "MIC", "setting": "[7]; Staphylococcus aureus, MS353AO", "result": 0.8, "unit": "µg/mL"}, {"measurement": "MIC", "setting": "[8]; [11]", "result": "> 100", "unit": "µg/mL"}]}, {"smiles": "CCC1OC(=O)CC(O)C(C)C(OC2OC(C)C(O)C(N(C)C)C2O)C(C)CC(C)C(=O)C=CC(C)=CC1COC1OC(C)CC(OC)C1OC", "note": "(stereo not shown) [Compound [1] R1 = OH, 19-deformyl-4\"-deoxy-desmycosin]", "values": [{"measurement": "MIC", "setting": "[1]; [9]", "result": 12.5, "unit": "µg/mL"}, {"measurement": "MIC", "setting": "[2]; read-out: MIC", "result": 25, "unit": "µg/mL"}, {"measurement": "MIC", "setting": "[3]", "result": 0.1, "unit": "µg/mL"}, {"measurement": "MIC", "setting": "[4]", "result": "≤ 0.05", "unit": "µg/mL"}, {"measurement": "MIC", "setting": "[5]; [10]", "result": 3.1, "unit": "µg/mL"}, {"measurement": "MIC", "setting": "[6]", "result": "≤ 0.05", "unit": "µg/mL"}, {"measurement": "MIC", "setting": "[7]; Staphylococcus aureus, MS353AO", "result": 25, "unit": "µg/mL"}, {"measurement": "MIC", "setting": "[8]; Staphylococcus aureus, 0127", "result": 6.3, "unit": "µg/mL"}]}, {"smiles": "CCC1OC(=O)CC(O)C(C)C(OC2OC(C)C(O)C(N(C)C)C2O)C(CC=O)CC(C)C(=O)/C=C/C(C)=C/C1COC1OC(C)C(O)C(OC)C1OC", "note": "(stereo not shown) [descomycin, 4'-demycarosyl tylosin]", "values": [{"measurement": "MIC", "setting": "[1]; [9]", "result": "> 100", "unit": "µg/mL"}, {"measurement": "MIC", "setting": "[2]; read-out: MIC", "result": "> 100", "unit": "µg/mL"}, {"measurement": "MIC", "setting": "[3]", "result": 0.8, "unit": "µg/mL"}, {"measurement": "MIC", "setting": "[4]", "result": 0.8, "unit": "µg/mL"}, {"measurement": "MIC", "setting": "[5]; [10]", "result": 3.1, "unit": "µg/mL"}, {"measurement": "MIC", "setting": "[6]", "result": "≤ 0.05", "unit": "µg/mL"}, {"measurement": "MIC", "setting": "[7]; Staphylococcus aureus, MS353AO", "result": "> 100", "unit": "µg/mL"}, {"measurement": "MIC", "setting": "[8]; [11]", "result": "> 100", "unit": "µg/mL"}]}, {"smiles": "CC[C@H]1OC(=O)[C@H](C)[C@@H](O[C@H]2C[C@@](C)(OC)[C@@H](O)[C@H](C)O2)[C@H](C)[C@@H](O[C@@H]2O[C@H](C)C[C@H](N(C)C)[C@H]2O)[C@](C)(O)C[C@@H](C)C(=O)[C@H](C)[C@@H](O)[C@]1(C)O", "note": "[erythromycin]", "values": [{"measurement": "MIC", "setting": "[1]; Staphylococcus aureus, 0119", "result": "> 100", "unit": "µg/mL"}, {"measurement": "MIC", "setting": "[2]", "result": "> 100", "unit": "µg/mL"}, {"measurement": "MIC", "setting": "[3]", "result": "≤ 0.05", "unit": "µg/mL"}, {"measurement": "MIC", "setting": "[4]", "result": 0.1, "unit": "µg/mL"}, {"measurement": "MIC", "setting": "[5]; Staphylococcus aureus, 0116", "result": "> 100", "unit": "µg/mL"}, {"measurement": "MIC", "setting": "[6]", "result": "≤ 0.05", "unit": "µg/mL"}, {"measurement": "MIC", "setting": "[7]; Staphylococcus aureus MS353AO, macrolide-resistant A group strain, clinical isolate, read-out: MIC", "result": "> 100", "unit": "µg/mL"}, {"measurement": "MIC", "setting": "[8]; Staphylococcus aureus, 0127", "result": "> 100", "unit": "µg/mL"}]}, {"smiles": "CO[C@@H]1[C@@H](O[C@@H]2O[C@H](C)[C@@H](O[C@H]3C[C@@](C)(O)[C@@H](OC(=O)CC(C)C)[C@H](C)O3)[C@H](N(C)C)[C@H]2O)[C@@H](CC=O)C[C@@H](C)[C@@H](O)/C=C/C=C/C[C@@H](C)OC(=O)C[C@H]1OC(C)=O", "note": "[josamycin]", "values": [{"measurement": "MIC", "setting": "[1]; [9]", "result": "> 100", "unit": "µg/mL"}, {"measurement": "MIC", "setting": "[2]; read-out: MIC", "result": "> 100", "unit": "µg/mL"}, {"measurement": "MIC", "setting": "[3]", "result": 0.4, "unit": "µg/mL"}, {"measurement": "MIC", "setting": "[4]", "result": 0.8, "unit": "µg/mL"}, {"measurement": "MIC", "setting": "[5]; [10]", "result": "> 100", "unit": "µg/mL"}, {"measurement": "MIC", "setting": "[6]", "result": "≤ 0.05", "unit": "µg/mL"}, {"measurement": "MIC", "setting": "[7]; Staphylococcus aureus, MS353AO", "result": "> 100", "unit": "µg/mL"}, {"measurement": "MIC", "setting": "[8]; [11]", "result": "> 100", "unit": "µg/mL"}]}]}
